From patent US20140377340A1, “HLA-DR BINDING PEPTIDES AND THEIR USES” (priority 2007, published 2014)

Legend:
purified HLA DRB1*0101 = target: T1, purified HLA DRB1*0101 (Homo sapiens, UniProt P01903+P01911, A100R/D57E/F55L/F60I/F76Y/I96L/L162R/M171V/P40L/Q125E/R42F/V115G/Y59C); experiment: HLA-DR radioligand binding inhibition assay, DRB1*0101; conditions: IC50 nM purified HLA DRB1 *0101, purified HLA DRB1*0101
T1 construct: purified from EBV transformed homozygous cell lines or single MHC allele transfected 721.221, C1R, or fibroblast lines; made in house
In short: (§1)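 Competition binding: 1-10 nM radiolabeled peptide + 1 μM–1 nM HLA-DR, protease inhibitor cocktail, 2 d, RT or 37° C., pH 4–7. LB3.1 capture 3 h in 0.05% NP40/PBS; scintillation counting.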

purified HLA DRB1*0301 = target: T2, purified HLA DRB1*0301 (Homo sapiens, UniProt P01903+P01911, A100K/A102G/A103R/A169T/F55Y/I96L/K41T/L162R/M171V/P40S/Q125H/Q178H/Q39Y/R42S/S66N/T106N/T262R/W38E/Y61H); experiment: HLA-DR radioligand binding inhibition assay, DRB1*0301; conditions: IC50 nM purified HLA DRB1 *0301, purified HLA DRB1*0301
T2 construct: purified from EBV transformed homozygous cell lines or single MHC allele transfected 721.221, C1R, or fibroblast lines; made in house
Description: (§2) Instead, wells of an opaque white 96-well Optiplate (Packard) are coated with 3 μg (100 μl@ 30 μg/ml) of HLA-specific antibody (Ab) that “capture” complexes of radiolabeled MHC and unlabeled peptide transferred from the molecular binding assay plate in 100 μl of 0.05% NP40/PBS. After a 3-hour incubation period, the supernatant is decanted and scintillation fluid (Microscint 20) added. Captured complexes are then measured on a microplate scintillation and luminescence counter (TopCount NXTTM; Packard).
(§3) HLA-DR purification. Fifteen distinct HLA-DR molecules were used in quantitative assays to measure the binding of peptides to solubilized HLA-DR molecules. […] Briefly, columns of inactivated Sepharose CL4B and Protein A Sepharose were used as pre-columns. HLA-DR molecules were captured by passage of lysates over LB3.1 monoclonal antibody (anti-HLA-DRA) columns. Antibody columns were washed with 10 mM Tris-HCL, pH8.0 with 1% (v/v) NP-40, followed by PBS containing 0.4% (w/v) n-octylglucoside.
(§4) Briefly, 1-10 nM of radiolabeled peptide was co-incubated for 2 days at either room temperature or 37° C. with 1 μM to 1 nM purified HLA-DR molecules in the presence of a cocktail of protease inhibitors. Assays were performed at various pH conditions, ranging from pH 4 to pH 7. […] After incubation, the percentage of HLA-DR-bound radioactivity is determined by capturing HLA-DR/peptide complexes on Optiplates (Packard Instruments, Meriden, Conn.) coated with the LB3.1 antibody and determining bound counts per minute using the TopCount microscintillation counter (Packard Instruments).

purified HLA DRB1*0401 = target: T3, purified HLA DRB1*0401 (Homo sapiens, UniProt P01903+P01911, A100K/A169T/F76Y/I96L/K127E/L162R/M171V/N62H/P40V/Q125Y/R42H/S133A/S149N/S66Y/V115G/V209L/W38E); experiment: HLA-DR radioligand binding inhibition assay, DRB1*0401; conditions: IC50 nM purified HLA DRB1 *0401, purified HLA DRB1*0401
T3 construct: purified from EBV transformed homozygous cell lines or single MHC allele transfected 721.221, C1R, or fibroblast lines; made in house
In short: as §1

purified HLA DRB1*0802 = target: T4, purified HLA DRB1*0802 (Homo sapiens, UniProt P01903+P01911, A100R/A103L/A169T/F76Y/H45Y/I96F/K41T/L162R/M171V/P40S/Q125H/Q178H/Q39Y/Q99D/R218S/R42G/S66Y/V115G/W38E); experiment: HLA-DR radioligand binding inhibition assay, DRB1*0802; conditions: IC50 nM purified HLA DRB1 *0802, purified HLA DRB1*0802
T4 construct: purified from EBV transformed homozygous cell lines or single MHC allele transfected 721.221, C1R, or fibroblast lines; made in house
Description: as §2
as §3, with “n-octylglucoside. […] The pH was reduced to 8.0 and the eluates were concentrated by centrifugation in Centriprep 30 concentrators at 2000 rpm (Amicon, Beverly, Mass.).” for “n-octylglucoside.”
as §4, with “Instruments). […] Competitor peptides are tested in 2-4 complete, independent experiments, at concentrations ranging from […].” for “Instruments).”

purified HLA DRB1*1201 = target: T5, purified HLA DRB1*1201 (Homo sapiens, UniProt P01903+P01911, A100R/A169T/D57E/D86V/F55L/H45Y/K41T/L162R/M171V/P40S/Q125H/Q178H/Q39Y/Q99D/R42G/S66L/T262R/V114A/V67L/W38E/Y59H/Y61H/Y89S); experiment: HLA-DR radioligand binding inhibition assay, DRB1*1201
T5 construct: purified from EBV transformed homozygous cell lines or single MHC allele transfected 721.221, C1R, or fibroblast lines; made in house
Description: as §2
as §3, with “n-octylglucoside. […] The pH was reduced to 8.0 and the eluates were concentrated by centrifugation in Centriprep 30 concentrators at 2000 rpm (Amicon, Beverly, Mass.).” for “n-octylglucoside.”
as §4, with “Instruments). […] Competitor peptides are tested in 2-4 complete, independent experiments, at concentrations ranging from […].” for “Instruments).”

purified HLA DRB1*1501 = target: T6, purified HLA DRB1*1501 (Homo sapiens, UniProt P01903+P01911); experiment: HLA-DR radioligand binding inhibition assay, DRB1*1501
T6 construct: purified from EBV transformed homozygous cell lines or single MHC allele transfected 721.221, C1R, or fibroblast lines; made in house
In short: as §1

purified HLA DRB3*0101 = target: T7, purified HLA DRB3*0101 (Homo sapiens, UniProt P01903+P79483); experiment: HLA-DR radioligand binding inhibition assay, DRB3*0101; conditions: IC50 nM purified HLA DRB3 *0101, purified HLA DRB3*0101
T7 construct: purified from EBV transformed homozygous cell lines or single MHC allele transfected 721.221, C1R, or fibroblast lines; made in house
Description: as §2
as §3, with “n-octylglucoside. […] The pH was reduced to 8.0 and the eluates were concentrated by centrifugation in Centriprep 30 concentrators at 2000 rpm (Amicon, Beverly, Mass.).” for “n-octylglucoside.”
as §4, with “Instruments). […] Competitor peptides are tested in 2-4 complete, independent experiments, at concentrations ranging from […].” for “Instruments).”

purified HLA DRB5*0101 = target: T8, purified HLA DRB5*0101 (Homo sapiens, UniProt P01903+Q30154); experiment: HLA-DR radioligand binding inhibition assay, DRB5*0101; conditions: IC50 nM purified HLA DRB5 *0101, purified HLA DRB5*0101
T8 construct: purified from EBV transformed homozygous cell lines or single MHC allele transfected 721.221, C1R, or fibroblast lines; made in house
In short: as §1

purified HLA DRB1*0404 = target: T9, purified HLA DRB1*0404 (Homo sapiens, UniProt P01903+P01911, A100R/A169T/F76Y/I96L/K127E/L162R/M171V/N62H/P40V/Q125Y/R42H/S133A/S149N/S66Y/V209L/W38E); experiment: HLA-DR radioligand binding inhibition assay, DRB1*0404; conditions: IC50 nM purified HLA DRB1 *0404, purified HLA DRB1*0404
T9 construct: purified from EBV transformed homozygous cell lines or single MHC allele transfected 721.221, C1R, or fibroblast lines; made in house
In short: as §1

purified HLA DRB1*1101 = target: T10, purified HLA DRB1*1101 (Homo sapiens, UniProt P01903+P01911, A100R/A169T/A87E/I96F/K41T/L162R/M171V/P40S/Q125H/Q178H/Q39Y/Q99D/R42S/S66Y/T262R/V115G/W38E); experiment: HLA-DR radioligand binding inhibition assay, DRB1*1101; conditions: IC50 nM purified HLA DRB1 *1101, purified HLA DRB1*1101
T10 construct: purified from EBV transformed homozygous cell lines or single MHC allele transfected 721.221, C1R, or fibroblast lines; made in house
In short: as §1

[1] = test system: short term T cell lines from breast or ovarian cancer patients; experiment: IFN-γ ELISpot analysis of short term T cell lines (peptide versus protein fragment; natural processing); assay type: cell-based, human; conditions: T cell lines respond to culture peptide and to protein fragment; FIGS. 5 and 6
Excerpt: IFN-γ ELISpot analysis of short term T cell lines generated against HER-2/neu peptides, p53 (Panel A), p83 (Panel B), p88 (Panel C) and p885 (Panel D). […] Each bar is the mean (s.e.m.) of three replicates.
FIG. 6 is identical to FIG. 5 except that the results were obtained using IGFBP-2 derived helper epitopes.

[2] = test system: 15 different HLA-DR molecules; experiment: HLA-DR binding assays, panel of 15 different HLA-DR molecules (breadth of binding); conditions: number of the 15 HLA-DR molecules bound (binders: 1000 nM or better)

T10 sequence (P01903 26-254, other chains not shown): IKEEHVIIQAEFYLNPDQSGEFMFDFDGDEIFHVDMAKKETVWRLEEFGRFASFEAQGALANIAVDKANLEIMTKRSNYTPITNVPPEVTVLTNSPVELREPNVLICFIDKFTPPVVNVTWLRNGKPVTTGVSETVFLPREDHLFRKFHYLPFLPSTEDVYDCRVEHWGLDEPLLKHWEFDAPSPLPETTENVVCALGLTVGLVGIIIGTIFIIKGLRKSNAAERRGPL

SMILES	IC50 (purified HLA DRB1*0301) [nM]	IC50 (purified HLA DRB1*0401) [nM]	IC50 (purified HLA DRB1*0802) [nM]	IC50 (purified HLA DRB1*1201) [nM]	IC50 (purified HLA DRB3*0101) [nM]	naturally processed and presented antigen [1]	Total XRN [2]	further results
CC[C@H](C)[C@H](NC(=O)[C@H](CS)NC(=O)[C@H](Cc1c[nH]c2ccccc12)NC(=O)[C@@H](N)CCCNC(=N)N)C(=O)N1CCC[C@H]1C(=O)N[C@@H](Cc1c[nH]c2ccccc12)C(=O)N[C@@H](CCC(N)=O)C(=O)N[C@@H](CCCNC(=N)N)C(=O)N[C@@H](CC(C)C)C(=O)N[C@@H](CC(C)C)C(=O)N[C@@H](CC(C)C)C(=O)N[C@H](C(=O)N[C@@H](C)C(=O)N[C@@H](CO)C(=O)N[C@@H](CC(C)C)C(=O)O)[C@@H](C)O [Peptide 9019.0104]	7860	426	263	1560	> 20000			IC50 (purified HLA DRB1*0101): 1470 nM; IC50 (purified HLA DRB1*1501): 61 nM; IC50 (purified HLA DRB5*0101): 4010 nM
CC[C@H](C)[C@H](NC(=O)[C@H](CO)NC(=O)[C@@H]1CCCN1C(=O)[C@H](CCCCN)NC(=O)[C@@H]1CCCN1C(=O)[C@H](CC(C)C)NC(=O)[C@H](CCC(=O)O)NC(=O)[C@H](C)NC(=O)[C@H](CO)NC(=O)[C@@H](NC(=O)[C@@H](NC(=O)[C@@H](NC(=O)[C@@H](N)[C@@H](C)O)[C@@H](C)CC)[C@@H](C)O)C(C)C)C(=O)N[C@@H](CO)C(=O)N[C@@H](CO)C(=O)O [Peptide 9019.0132]	74		> 20000	> 20000	> 20000			IC50 (purified HLA DRB1*0404): 7000 nM; IC50 (purified HLA DRB1*1101): > 20000 nM
CSCC[C@H](NC(=O)[C@H](C)NC(=O)[C@@H](N)CCCNC(=N)N)C(=O)N[C@@H](CC(C)C)C(=O)N[C@@H](CCCCN)C(=O)N[C@@H](C)C(=O)N[C@@H](CCC(=O)O)C(=O)N[C@@H](CCC(=O)O)C(=O)N[C@H](C(=O)N[C@@H](CS)C(=O)N[C@@H](C)C(=O)N1CCC[C@H]1C(=O)N[C@@H](CO)C(=O)N[C@H](C(=O)N[C@@H](CO)C(=O)O)C(C)C)[C@@H](C)O [Peptide 9019.0148]	> 20000	360	> 20000	> 20000	> 20000			
CC(C)C[C@H](NC(=O)[C@H](CC(C)C)NC(=O)[C@H](CC(C)C)NC(=O)[C@H](CC(C)C)NC(=O)[C@H](CC(C)C)NC(=O)[C@H](CC(C)C)NC(=O)[C@@H]1CCCN1C(=O)[C@H](CC(C)C)NC(=O)[C@H](CC(C)C)NC(=O)[C@@H]1CCCN1C(=O)[C@H](CC(C)C)NC(=O)[C@@H](N)CC(C)C)C(=O)NCC(=O)N[C@@H](C)C(=O)N[C@@H](CO)C(=O)O [Peptide 9019.0176]						naturally processed peptides	10	
CC(C)C[C@H](NC(=O)[C@H](CC(C)C)NC(=O)[C@H](CC(C)C)NC(=O)[C@H](CC(C)C)NC(=O)[C@H](CC(C)C)NC(=O)[C@H](CC(C)C)NC(=O)[C@@H]1CCCN1)C(=O)NCC(=O)N[C@@H](C)C(=O)N[C@@H](CO)C(=O)NCC(=O)NCC(=O)NCC(=O)NCC(=O)NCC(=O)O [Peptide 9019.0177]						naturally processed peptides	4	
CC[C@H](C)[C@H](NC(=O)[C@H](CC(C)C)NC(=O)[C@H](CCCCN)NC(=O)CNC(=O)[C@@H](N)[C@@H](C)O)C(=O)N[C@@H](CCC(N)=O)C(=O)NCC(=O)N[C@@H](C)C(=O)N1CCC[C@H]1C(=O)N[C@H](C(=O)N[C@H](C(=O)N[C@@H](CCCNC(=N)N)C(=O)NCC(=O)N[C@@H](CC(=O)O)C(=O)N1CCC[C@H]1C(=O)O)[C@@H](C)CC)[C@@H](C)O [Peptide 9019.0192]						naturally processed peptides	9	
